Consider 32 molecules from US11524968B2, “Heterocyclic compound as a protein kinase inhibitor” (HK inno.N Corporation, priority 2017, dated 2022).

The experiment has as its target JAK1 (Homo sapiens (Human), UniProt P23458). Description: Analysis of JAK1 activity inhibition ability (ADP-Glo Kinase Assay). The note with it: JAK1 enzyme, ADP-Glo luminescence, ATP 250 uM, IRS-itide substrate, 30° C. 40 minutes; read-out: IC50. It is filed as biochemical. The gist of the method:
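JAK1 enzyme, IRS-itide substrate (40 ng/mL) and 250 uM ATP, both as prepared in kinase buffer (Tris-HCl pH 7.5, MgCl2, BSA, DTT), reacted with compound 40 min at 30 °C. ADP formed was detected by ADP-Glo luminescence; IC50 is the concentration giving 50% inhibition versus control.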

Bounds are passed on as bounds.

JAK1, sequence (P23458 whole entry): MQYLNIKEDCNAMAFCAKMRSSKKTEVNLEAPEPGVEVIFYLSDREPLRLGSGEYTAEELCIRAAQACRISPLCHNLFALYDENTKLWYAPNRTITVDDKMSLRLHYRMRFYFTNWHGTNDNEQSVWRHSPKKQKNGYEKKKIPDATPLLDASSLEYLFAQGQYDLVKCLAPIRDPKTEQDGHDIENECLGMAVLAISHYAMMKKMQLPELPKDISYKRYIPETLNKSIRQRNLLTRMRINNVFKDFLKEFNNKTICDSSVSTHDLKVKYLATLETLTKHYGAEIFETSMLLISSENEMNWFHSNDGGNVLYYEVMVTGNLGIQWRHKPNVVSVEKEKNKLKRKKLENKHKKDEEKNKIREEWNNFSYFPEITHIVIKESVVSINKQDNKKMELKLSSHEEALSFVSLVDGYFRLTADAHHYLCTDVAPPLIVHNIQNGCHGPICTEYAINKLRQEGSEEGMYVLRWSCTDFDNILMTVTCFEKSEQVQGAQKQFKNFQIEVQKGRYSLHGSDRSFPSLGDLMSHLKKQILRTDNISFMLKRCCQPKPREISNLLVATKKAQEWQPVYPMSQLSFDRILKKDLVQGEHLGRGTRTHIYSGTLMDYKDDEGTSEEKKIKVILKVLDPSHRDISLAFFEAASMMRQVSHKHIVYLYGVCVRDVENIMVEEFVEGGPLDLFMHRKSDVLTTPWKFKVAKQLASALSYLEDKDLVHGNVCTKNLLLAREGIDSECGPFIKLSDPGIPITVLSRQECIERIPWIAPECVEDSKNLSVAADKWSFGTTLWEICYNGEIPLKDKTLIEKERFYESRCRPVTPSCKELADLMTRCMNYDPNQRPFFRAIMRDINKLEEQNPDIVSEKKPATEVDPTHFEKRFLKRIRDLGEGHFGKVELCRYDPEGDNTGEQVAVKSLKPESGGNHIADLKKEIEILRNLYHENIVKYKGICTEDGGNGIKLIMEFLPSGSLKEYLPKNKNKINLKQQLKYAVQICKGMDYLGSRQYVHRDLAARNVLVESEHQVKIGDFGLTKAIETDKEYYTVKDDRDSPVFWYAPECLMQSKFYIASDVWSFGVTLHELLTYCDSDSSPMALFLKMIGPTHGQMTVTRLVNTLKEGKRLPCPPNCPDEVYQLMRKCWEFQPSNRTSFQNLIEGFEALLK

On to `N#CC1COCCN1C(=O)Cc1ccc(-c2cc(NC(=O)C3CC3)nc3[nH]ccc23)cc1` (centres unmarked) [Example 576, N-(4-(4-(2-(3-cyanomorpholino)-2-oxoethyl)phenyl)-1H-pyrrolo[2,3-b]pyridin-6-yl)cyclopropanecarboxamide], for which the IC50 is 20 to 200 nM.

On to `O=C(Nc1cc(-c2ccc(C3(C(=O)N4CCS(=O)(=O)CC4)CC3)cc2)c2cc[nH]c2n1)C1CC1` [Example 577, N-(4-(4-(1-(1,1-dioxidothiomorpholine-4-carbonyl)cyclopropyl)phenyl)-1H-pyrrolo[2,3-b]pyridin-6-yl)cyclopropanecarboxamide], for which the IC50 lay within 20 to 200 nM.

For `O=C(Nc1cc(C2=CCN(CC(=O)N3CCS(=O)(=O)CC3)CC2)c2cc[nH]c2n1)C1CC1` [Example 578, N-(4-(1-(2-(1,1-dioxidothiomorpholino)-2-oxoethyl)-1,2,3,6-tetrahydropyridin-4-yl)-1H-pyrrolo[2,3-b]pyridin-6-yl)cyclopropanecarboxamide], the IC50 lay within 20 to 200 nM.

For the molecule `O=C(Nc1cc(-c2ccc(CNC(=O)N3CCOCC3)cc2)c2cc[nH]c2n1)C1CC1` [Example 579, N-(4-(6-(cyclopropanecarboxamido)-1H-pyrrolo[2,3-b]pyridin-4-yl)benzyl)morpholine-4-carboxamide], the IC50 is more than 200 nM.

Take `O=C(Nc1cc(-c2ccc(CNC(=O)N3CCS(=O)(=O)CC3)cc2)c2cc[nH]c2n1)C1CC1` [Example 580, N-(4-(6-(cyclopropanecarboxamido)-1H-pyrrolo[2,3-b]pyridin-4-yl)benzyl)thiomorpholine-4-carboxamide 1,1-dioxide]: the IC50 was in the range of 20 to 200 nM.

As to `O=C(NCc1ccc(-c2cc(NC(=O)C3CC3)nc3[nH]ccc23)cc1)NCC(F)(F)F` [Example 581, N-(4-(4-((3-(2,2,2-trifluoroethyl)ureido)methyl)phenyl)-1H-pyrrolo[2,3-b]pyridin-6-yl)cyclopropanecarboxamide], the IC50 lay within 20 to 200 nM.

Consider `O=C(Nc1cc(-c2ccc(CNS(=O)(=O)c3ccc(F)c(F)c3)cc2)c2cc[nH]c2n1)C1CC1` [Example 582, N-(4-(4-(((3,4-difluorophenyl)sulfonamido)methyl)phenyl)-1H-pyrrolo[2,3-b]pyridin-6-yl)cyclopropanecarboxamide], for which the IC50 is less than 20 nM.

In the case of `CCCS(=O)(=O)NCc1ccc(-c2cc(NC(=O)C3CC3)nc3[nH]ccc23)cc1` [Example 583, N-(4-(4-(propylsulfonamidomethyl)phenyl)-1H-pyrrolo[2,3-b]pyridin-6-yl)cyclopropanecarboxamide], the IC50 lay in the range of 20 to 200 nM.

Turning to `O=C(Nc1cc(-c2ccc(CN3CCS(=O)(=O)CC3)cc2)c2cc[nH]c2n1)C1CC1` [Example 584, N-(4-(4-((1,1-dioxidothiomorpholino)methyl)phenyl)-1H-pyrrolo[2,3-b]pyridin-6-yl)cyclopropanecarboxamide], the IC50 is less than 20 nM.

For the molecule `O=C1CCN(Cc2ccc(-c3cc(NC(=O)C4CC4)nc4[nH]ccc34)cc2)CC1` [Example 585, N-(4-(4-((4-oxopiperidin-1-yl)methyl)phenyl)-1H-pyrrolo[2,3-b]pyridin-6-yl)cyclopropanecarboxamide], the IC50 was less than 20 nM.

Regarding `N#CC1CN(Cc2ccc(-c3cc(NC(=O)C4CC4)nc4[nH]ccc34)cc2)C1` [Example 586, N-(4-(4-((3-cyanoazetidin-1-yl)methyl)phenyl)-1H-pyrrolo[2,3-b]pyridin-6-yl)cyclopropanecarboxamide], the IC50 was in the range of 20 to 200 nM.

With `CS(=O)(=O)N1CCN(Cc2ccc(-c3cc(NC(=O)C4CC4)nc4[nH]ccc34)cc2)CC1` [Example 587, N-(4-(4-((4-(methylsulfonyl)piperazin-1-yl)methyl)phenyl)-1H-pyrrolo[2,3-b]pyridin-6-yl)cyclopropanecarboxamide], the IC50 is less than 20 nM.

Turning to `CC1CC1C(=O)Nc1cc(-c2ccc(CN3CCS(=O)(=O)CC3)cc2)c2cc[nH]c2n1` (centres unmarked) [Example 588, N-(4-(4-((1,1-dioxidothiomorpholino)methyl)phenyl)-1H-pyrrolo[2,3-b]pyridin-6-yl)-2-methylcyclopropane-1-carboxamide], the IC50 is less than 20 nM.

As for `CC(c1ccc(-c2cc(NC(=O)C3CC3)nc3[nH]ccc23)cc1)N1CCS(=O)(=O)CC1` (centres unmarked) [Example 589, N-(4-(4-(1-(1,1-dioxidothiomorpholino)ethyl)phenyl)-1H-pyrrolo[2,3-b]pyridin-6-yl)cyclopropanecarboxamide], the IC50 is less than 20 nM.

Consider `O=C(Nc1cc(-c2cc(F)c(CN3CCOCC3)c(F)c2)c2cc[nH]c2n1)C1CC1` [Example 590, N-(4-(3,5-difluoro-4-(morpholinomethyl)phenyl)-1H-pyrrolo[2,3-b]pyridin-6-yl)cyclopropanecarboxamide], for which the IC50 is less than 20 nM.

`O=C(Nc1cc(-c2ccc(CCN3CCS(=O)(=O)CC3)cc2)c2cc[nH]c2n1)C1CC1` [Example 591, N-(4-(4-(2-(1,1-dioxidothiomorpholino)ethyl)phenyl)-1H-pyrrolo[2,3-b]pyridin-6-yl)cyclopropanecarboxamide]: the IC50 fell in the range of 20 to 200 nM.

Take `O=C(Nc1nc(-c2ccc(CN3CCS(=O)(=O)CC3)cc2)c2nc[nH]c2n1)C1CC1` [Example 592, N-(6-(4-((1,1-dioxidothiomorpholino)methyl)phenyl)-9H-purin-2-yl)cyclopropanecarboxamide]: the IC50 is more than 200 nM.

Take `Cc1nnn(Cc2ccc(-c3cc(NC(=O)C4CC4)nc4[nH]cnc34)cc2)n1` [Example 593, N-(7-(4-((5-methyl-2H-tetrazol-2-yl)methyl)phenyl)-3H-imidazo[4,5-b]pyridin-5-yl)cyclopropanecarboxamide]: the IC50 is more than 200 nM.

With `Cc1nnnn1Cc1ccc(-c2cc(NC(=O)C3CC3)nc3[nH]cnc23)cc1` [Example 594, N-(7-(4-((5-methyl-1H-tetrazol-1-yl)methyl)phenyl)-3H-imidazo[4,5-b]pyridin-5-yl)cyclopropanecarboxamide], the IC50 is more than 200 nM.

Take `O=C(Nc1cc(-c2ccc(CNC3CCS(=O)(=O)C3)cc2)c2cc[nH]c2n1)C1CC1` (centres unmarked) [Example 595, N-(4-(4-(((1,1-dioxidotetrahydrothiophen-3-yl)amino)methyl)phenyl)-1H-pyrrolo[2,3-b]pyridin-6-yl)cyclopropanecarboxamide]: the IC50 was 20 to 200 nM.

Regarding `O=C(Nc1cc(-c2ccc(CNC3CCS(=O)(=O)CC3)cc2)c2cc[nH]c2n1)C1CC1` [Example 596, N-(4-(4-(((1,1-dioxidotetrahydro-2H-thiopyran-4-yl)amino)methyl)phenyl)-1H-pyrrolo[2,3-b]pyridin-6-yl)cyclopropanecarboxamide], the IC50 is 20 to 200 nM.

Take `O=C(Nc1nc(-c2ccc(CNc3ccc(F)cc3)cc2)c2nc[nH]c2n1)C1CC1` [Example 597, N-(6-(4-(((4-fluorophenyl)amino)methyl)phenyl)-9H-purin-2-yl)cyclopropanecarboxamide]: the IC50 was more than 200 nM.

Take `O=C(Nc1nc(-c2ccc(CNc3cccc(F)c3)cc2)c2nc[nH]c2n1)C1CC1` [Example 598, N-(6-(4-(((3-fluorophenyl)amino)methyl)phenyl)-9H-purin-2-yl)cyclopropanecarboxamide]: the 50% inhibitory concentration (IC50) was more than 200 nM.

In the case of `O=C(Nc1cc(-c2cnn(C3CN(S(=O)(=O)C(F)(F)F)C3)c2)c2cc[nH]c2n1)C1CC1` [Example 599, N-(4-(1-(1-((trifluoromethyl)sulfonyl)azetidin-3-yl)-1H-pyrazol-4-yl)-1H-pyrrolo[2,3-b]pyridin-6-yl)cyclopropanecarboxamide], the IC50 was less than 20 nM.

Consider `O=C(Nc1cc(-c2cnn(C3CNC3)c2)c2cc[nH]c2n1)C1CC1` [Example 600, N-(4-(1-(azetidin-3-yl)-1H-pyrazol-4-yl)-1H-pyrrolo[2,3-b]pyridin-6-yl)cyclopropanecarboxamide], for which the IC50 was 20 to 200 nM.

Take `CCS(=O)(=O)N1CC(n2cc(-c3cc(NC(=O)C4CC4)nc4[nH]ccc34)cn2)C1` [Example 601, N-(4-(1-(1-(ethylsulfonyl)azetidin-3-yl)-1H-pyrazol-4-yl)-1H-pyrrolo[2,3-b]pyridin-6-yl)cyclopropanecarboxamide]: the IC50 lay in the range of 20 to 200 nM.

In the case of `CCCCS(=O)(=O)N1CC(n2cc(-c3cc(NC(=O)C4CC4)nc4[nH]ccc34)cn2)C1` [Example 602, N-(4-(1-(1-(butylsulfonyl)azetidin-3-yl)-1H-pyrazol-4-yl)-1H-pyrrolo[2,3-b]pyridin-6-yl)cyclopropanecarboxamide], the IC50 was more than 200 nM.

For `CS(=O)(=O)N1CC(n2cc(-c3cc(NC(=O)C4CC4)nc4[nH]ccc34)cn2)C1` [Example 603, N-(4-(1-(1-(methylsulfonyl)azetidin-3-yl)-1H-pyrazol-4-yl)-1H-pyrrolo[2,3-b]pyridin-6-yl)cyclopropanecarboxamide], the IC50 fell in the range of 20 to 200 nM.

For `O=C(Nc1cc(-c2cnn(C3CN(S(=O)(=O)c4ccccc4)C3)c2)c2cc[nH]c2n1)C1CC1` [Example 604, N-(4-(1-(1-(phenylsulfonyl)azetidin-3-yl)-1H-pyrazol-4-yl)-1H-pyrrolo[2,3-b]pyridin-6-yl)cyclopropanecarboxamide], the IC50 is 20 to 200 nM.

Regarding `O=C(Nc1cc(-c2cnn(C3CN(S(=O)(=O)c4ccc(F)c(F)c4)C3)c2)c2cc[nH]c2n1)C1CC1` [Example 605, N-(4-(1-(1-((3,4-difluorophenyl)sulfonyl)azetidin-3-yl)-1H-pyrazol-4-yl)-1H-pyrrolo[2,3-b]pyridin-6-yl)cyclopropanecarboxamide], the IC50 was 20 to 200 nM.

In the case of `O=C(Nc1cc(-c2cnn(C3CN(S(=O)(=O)C4CCCCC4)C3)c2)c2cc[nH]c2n1)C1CC1` [Example 606, N-(4-(1-(1-(cyclohexylsulfonyl)azetidin-3-yl)-1H-pyrazol-4-yl)-1H-pyrrolo[2,3-b]pyridin-6-yl)cyclopropanecarboxamide], the IC50 was more than 200 nM.

As for `CS(=O)(=O)N1CCC(n2cc(-c3cc(NC(=O)C4CC4)nc4[nH]ccc34)cn2)CC1` [Example 607, N-(4-(1-(1-(methylsulfonyl)piperidin-4-yl)-1H-pyrazol-4-yl)-1H-pyrrolo[2,3-b]pyridin-6-yl)cyclopropanecarboxamide], the IC50 is 20 to 200 nM.

The term IC50 denotes the point on the concentration scale where inhibition reaches its midpoint.
